According to patent US11090304B2 (Amgen Inc., priority 2018, dated 2021):

Each molecule was assayed against GDP-bound KRAS protein (aa 1-169), containing both G12C and C118A amino acid substitutions (Homo sapiens, UniProt P01116, C118A/G12C) (assay: Coupled nucleotide exchange assay (SOS-mediated, AlphaScreen)). Details: 5 min compound pre-incubation.
Assay type: biochemical

GDP-bound KRAS protein (aa 1-169), containing both G12C and C118A amino acid substitutions, sequence (P01116 1-169 isoform P01116-2 G12C/C118A): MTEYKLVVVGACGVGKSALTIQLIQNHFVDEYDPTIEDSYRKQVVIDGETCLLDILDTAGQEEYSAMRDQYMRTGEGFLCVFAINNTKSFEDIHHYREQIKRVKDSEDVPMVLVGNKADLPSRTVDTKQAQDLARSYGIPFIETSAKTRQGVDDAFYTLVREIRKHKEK

Coupled exchange IC50 (5 min)	Structure (SMILES)
0.154 | nda μM	C=CC(=O)N1CCN(c2nc(=O)n(-c3c(C)cccc3C3CC3)c3nc(-c4ccccc4F)c(Cl)cc23)[C@@H](C)C1 (single isomer, unassigned) [Example 56-5-1]
0.193 | nda μM	C=CC(=O)N1CCN(c2nc(=O)n(-c3ncc(C#N)cc3CC)c3nc(-c4c(O)cccc4F)c(Cl)cc23)[C@@H](C)C1 [Example 54-53, 6-(6-chloro~7-(2-fluoro-6-hydroxyphenyl)-4-((2S)-2-methyl-4-(2-propenoyl)-1-piperazinyl)-2-oxopyrido[2,3-d]pyrimidin-1(2H)-yl)-5-ethyl-3-pyridine-carbonitrile]
0.094 | nda μM	C=CC(=O)N1CCN(c2nc(=O)n(-c3ccccc3C3(C)CC3)c3nc(-c4ccccc4F)c(Cl)cc23)[C@@H](C)C1 (single isomer, unassigned) [Example 54-99-2]

These molecules were tested on Phosphorylation of ERK1/2 in MIA PaCa-2 cells (assay: Phospho-ERK1/2 MSD assay in MIA PaCa-2 cells). Details: Homo sapiens, MIA PaCa-2, 2 h, read-out: p-ERK IC50 (2 h; MIA PaCa-2), 2 h compound treatment.
Assay type: cell-based
Experimental: For compounds in Table 89, the following assay conditions were employed:
Phospho-ERK1/2 MSD Assay:
Sixteen hours prior to compound treatment, MIA PaCa-2 or A549 cells were seeded in 96-well cell culture plates at a density of 25,000 cells/well and incubated at 37° C., 5% CO2. A compound dose-response titration was diluted in growth media, added to appropriate wells of a cell culture plate, and then incubated at 37° C., 5% CO2 for 2 or 4 hours (see Table 15). Following compound treatment, cells were stimulated with 10 ng/mL EGF (Roche 11376454001) for 10 min, washed with ice-cold Dulbecco's phosphate-buffered saline, no Ca^2+ or Mg^2+ (ThermoFisher Scientific 14190144), and then lysed in RIPA buffer (50 mM Tris-HCl pH 7.5, 1% Igepal, 0.5% sodium deoxycholate, 150 mM NaCl, and 0.5% sodium dodecyl sulfate) containing protease inhibitors (Roche 4693132001) and phosphatase inhibitors (Roche 4906837001). Phosphorylation of ERK1/2 in compound-treated lysates was assayed using Phospho-ERK1/2 Whole Cell Lysate kits (Meso Scale Discovery K151DWD) according to the manufacturer's protocol. Assay plates were read on a Meso Scale Discovery Sector Imager 6000, and data were analyzed using a 4-parameter logistic model to calculate IC50 values.

Structure (SMILES)	IC50
C=CC(=O)N1CCN(c2nc(=O)n(-c3ncc(C#N)cc3CC)c3nc(-c4c(O)cccc4F)c(Cl)cc23)[C@@H](C)C1 [Example 54-53, 6-(6-chloro~7-(2-fluoro-6-hydroxyphenyl)-4-((2S)-2-methyl-4-(2-propenoyl)-1-piperazinyl)-2-oxopyrido[2,3-d]pyrimidin-1(2H)-yl)-5-ethyl-3-pyridine-carbonitrile]	593 nM
C=CC(=O)N1CCN(c2nc(=O)n(-c3ccccc3C3(C)CC3)c3nc(-c4ccccc4F)c(Cl)cc23)[C@@H](C)C1 (single isomer, unassigned) [Example 54-99-2]	174 nM
C=CC(=O)N1CCN(c2nc(=O)n(-c3c(C)cnn3C(C)C)c3nc(-c4c(O)cccc4F)c(Cl)cc23)[C@@H](C)C1 [Example 54-70, 6-chloro-7-(2-fluoro-6-hydroxyphenyl)-1-(4-methyl-1-(2-propanyl)-1H-pyrazol-5-yl)-4-((2S)-2-methyl-4-(2-propenoyl)-1-piperazinyl) pyrido[2,3-d]pyrimidin-2(1H)-one]	88 nM
C=CC(=O)N1CCN(c2nc(=O)n(-c3ccccc3C(C)C)c3nc(-c4ccccc4O)c(Cl)cc23)[C@@H](C)C1 [Example 54-43, 6-chloro-7-(2-hydroxyphenyl)-4-((2S)-2-methyl-4-(2-propenoyl)-1-piperazinyl)-1-(2-(2-propanyl)phenyl)pyrido [2,3-d]pyrimidin-2(1H)-one]	251 nM
C=CC(=O)N1CCN(c2nc(=O)n(-c3c(C(C)C)ccnc3C)c3nc(-c4c(O)cccc4F)c(Cl)cc23)[C@@H](C)C1 [Example 54-17, 6-chloro-7-(2-fluoro-6-hydroxy-phenyl)-1-(2-methyl-4-(2-propanyl)-3-pyridinyl)-4-((2S)-2-methyl-4-(2-propenoyl)-1-piperazinyl) pyrido[2,3-d]pyrimidin-2(1H)-one]	504 nM
C=CC(=O)N1CCN(c2nc(CO)cc3nc(-c4ccccc4F)c(Cl)cc23)[C@@H](C)C1 [Example 150, 1-((3S)-4-(3-Chloro-2-(2-fluorophenyl)-7-(hydroxymethyl)-1,6-naphthyridin-5-yl)-3-methyl-1-piperazinyl)-2-propen-1-one]	3330 nM

Now from value to molecule:

IC50	Structure (SMILES)
742 nM	C=CC(=O)N1CCN(c2nc(=O)n(-c3c(C)ncnc3C(C)C)c3nc(-c4c(O)cccc4F)c(F)cc23)[C@@H](C)C1 [Example 58-11, 6-fluoro-7-(2-fluoro-6-hydroxyphenyl)-1-(4-methyl-6-(2-propanyl)-5-pyrimidinyl)-4-((2S)-2-methyl-4-(2-propenoyl)-1-piperazinyl)pyrido[2,3-d]pyrimidin-2(1H)-one]
25 nM	C=CC(=O)N1CCN(c2nc(=O)n(-c3c(C(C)C)ncnc3C(C)C)c3nc(-c4c(O)cccc4F)c(Cl)cc23)[C@@H](C)C1 [Example 55-2]
10000 nM	C=CC(=O)N1CCN(c2nc(C)c(-c3ccccc3C3CC3)c3nc(-c4ccccc4F)c(Cl)cc23)CC1 [Example 85-3, 1-(4-(3-chloro-8-(2-cyclopropylphenyl)-2-(2-fluorophenyl)-7-methyl-1,6-naphthyridin-5-yl)-1-piperazinyl)-2-propen-1-one]
10000 nM	C=CC(=O)N1CCN(c2nc(C)c(-c3ccccc3C(C)C)c3nc(-c4ccccc4F)c(Cl)cc23)[C@@H](C)C1 [Example 85-4, 1-((3S)-4-(3-chloro-2-(2-fluorophenyl)-7-methyl-8-(2-(2-propanyl)phenyl)-1,6-naphthyridin-5-yl)-3-methyl-1-piperazinyl)-2-propen-1-one]
365 nM	C=CC(=O)N1CCN(c2nc(=O)n(-c3c(C(C)C)ccnc3C)c3nc(-c4c(O)cccc4F)c(F)cc23)[C@@H](C)C1 [Example 58-15, 6-fluoro-7-(2-fluoro-6-hydroxyphenyl)-1-(2-methyl-4-(2-propanyl)-3-pyridinyl)-4-((2S)-2-methyl-4-(2-propenoyl)-1-piperazinyl)pyrido[2,3-d]pyrimidin-2(1H)-one]
134 nM	C=CC(=O)N1CCN(c2nc(=O)n(-c3c(C)ncnc3C(C)C)c3nc(-c4c(O)cccc4F)c(Cl)cc23)[C@@H](C)C1 [Example 55-14, 6-chloro-7-(2-fluoro-6-hydroxyphenyl)-1-(4-methyl-6-(2-propanyl)-5-pyrimidinyl)-4-((2S)-2-methyl-4-(2-propenoyl)-1-piperazinyl)pyrido[2,3-d]pyrimidin-2(1H)-one]
272 nM	C=CC(=O)N1CCN(c2nc(=O)n(-c3c(C)cccc3C(C)C)c3nc(-c4c(O)cccc4F)c(F)cc23)[C@@H](C)C1 [Example 58-18, 6-fluoro-7-(2-fluoro-6-hydroxyphenyl)-1-(2-methyl-6-(2-propanyl)phenyl)-4-((2S)-2-methyl-4-(2-propenoyl)-1-piperazinyl)pyrido[2,3-d]pyrimidin-2(1H)-one]

Same assay, conditions: Homo sapiens, MIA PaCa-2, 4 h, read-out: p-ERK IC50 (4 h; MIA PaCa-2), 4 h compound treatment

IC50	Structure (SMILES)
2250 nM	C=CC(=O)N1CCN(c2nc(=O)n(CC3(C(F)(F)F)CC3)c3nc(-c4ccccc4F)c(Cl)cc23)CC1 [Example 60-4, 6-chloro-7-(2-fluorophenyl)-4-(4-(2-propenoyl)-1-piperazinyl)-1-((1-(trifluoromethyl)cyclopropyl)methyl)pyrido[2,3-d]pyrimidin-2(1H)-one]

Same assay, conditions: read-out: p-ERK IC50 (2 h; MIA PaCa-2), 2 h compound treatment

IC50	Structure (SMILES)
188 nM	C=CC(=O)N1CCN(c2nc(=O)n(-c3c(C)cccc3C3CC3)c3nc(-c4ccccc4F)c(Cl)cc23)[C@@H](C)C1 (single isomer, unassigned) [Example 56-5-1]
1090 nM	C=CC(=O)N1CCN(c2nc(=O)n(-c3c(C)ncnc3C(C)C)c3nc(-c4c(O)cccc4F)c(Cl)cc23)[C@@H](C)C1 (single isomer, unassigned) [Example 55-14-1]
160 nM	C=CC(=O)N1CCN(c2nc(=O)n(-c3c(C)cccc3CC)c3nc(-c4c(O)cccc4F)c(Cl)cc23)[C@@H](C)C1 (single isomer, unassigned) [Example 55-8-2]
1650 nM	C=CC(=O)N1CCN(c2nc(=O)n(-c3ccccc3C(C)C)c3cc(-c4ccccc4F)c(Cl)cc23)CC1 (single isomer, unassigned) [Example 88-2, 6-chloro-7-(2 fluorophenyl)-1-(2-(2-propanyl)phenyl)-4-(4-(2-propenoyl)-1-piperazinyl)-2(1H)-quinazolinone]
413 nM	C=CC(=O)N1CCN(c2nc(=O)n(-c3c(C(C)C)ccnc3C)c3nc(-c4c(O)cccc4F)c(Cl)cc23)[C@@H](C)C1 (single isomer, unassigned) [Example 54-17-1]
45 nM	C=CC(=O)N1CCN(c2nc(=O)n(-c3c(C)cccc3CC)c3nc(-c4c(O)cccc4F)c(Cl)cc23)[C@@H](C)C1 (single isomer, unassigned) [Example 55-8-1]
715 nM	C=CC(=O)N1CCN(c2nc(=O)n(-c3c(C)cccc3C(C)C)c3nc(-c4c(O)cccc4F)c(F)cc23)[C@@H](C)C1 (single isomer, unassigned) [Example 58-18-2]
704 nM	C=CC(=O)N1CCN(c2nc(=O)n(-c3ccccc3C(C)C)c3nc(-c4c(O)cccc4F)c(Cl)cc23)CC1 (single isomer, unassigned) [Example 60-24-2, (P)-6-chloro-7-(2-fluoro-6-hydroxyphenyl)-1-(2-(2-propanyl)phenyl)-4-(4-(2-propenoyl)-1-piperazinyl)pyrido[2,3-d]pyrimidin-2(1H)-one]

Same assay, conditions: read-out: p-ERK IC50 (4 h; MIA PaCa-2), 4 h compound treatment

IC50	Structure (SMILES)
976 nM	C=CC(=O)N1CCN(c2nc(=O)n(-c3ccccc3C(C)C)c3nc(-c4c(O)cccc4F)c(Cl)cc23)CC1 (single isomer, unassigned) [Example 60-24-2, (P)-6-chloro-7-(2-fluoro-6-hydroxyphenyl)-1-(2-(2-propanyl)phenyl)-4-(4-(2-propenoyl)-1-piperazinyl)pyrido[2,3-d]pyrimidin-2(1H)-one]
